Experiments:
[1] = Measurement of fluorescence quantum yield (Rhodamine B in ethanol as reference); type: physicochemical
[2] = Absorption and emission spectra of dyes in different solvents; type: physicochemical; set-up: key to Δλ1 / Δλ2: Stokes shift in nm; ε1 (molar extinction coefficient) / ε2 (molar extinction coefficient): scale not given here; conditions: for Δλ1: Stokes shift to absorption peak 1; for Δλ2: Stokes shift to absorption peak 2
Text: In the present invention, compounds IIa to IIg were synthesized based on compound II, and their spectral properties were investigated. Compared with the traditional pentamethine cyanine dye, for the novel pentamethine cyanine dye with N-substituting at β-position (deviated position), it was observed that, evident blue shift of absorption and emission wavelengths occurred, absorption wavelength blue shifted even largely than that of emission wavelength, absorption spectrum and fluorescence spectrum were no longer mirror-symmetric and had two absorption peaks and a single emission peak, and larger Stokes shift (minimum 60 and 150 nm, and maximum 90 and 230 nm) appeared.

[3] = biological target: bovine serum albumin (BSA) (Bos taurus, UniProt P02769); test: Titration of dye solution with BSA, fluorescence and UV absorption; type: binding; conditions: dye solution 1 μM, PBS pH 7.4
bovine serum albumin (BSA), sequence (P02769 25-607): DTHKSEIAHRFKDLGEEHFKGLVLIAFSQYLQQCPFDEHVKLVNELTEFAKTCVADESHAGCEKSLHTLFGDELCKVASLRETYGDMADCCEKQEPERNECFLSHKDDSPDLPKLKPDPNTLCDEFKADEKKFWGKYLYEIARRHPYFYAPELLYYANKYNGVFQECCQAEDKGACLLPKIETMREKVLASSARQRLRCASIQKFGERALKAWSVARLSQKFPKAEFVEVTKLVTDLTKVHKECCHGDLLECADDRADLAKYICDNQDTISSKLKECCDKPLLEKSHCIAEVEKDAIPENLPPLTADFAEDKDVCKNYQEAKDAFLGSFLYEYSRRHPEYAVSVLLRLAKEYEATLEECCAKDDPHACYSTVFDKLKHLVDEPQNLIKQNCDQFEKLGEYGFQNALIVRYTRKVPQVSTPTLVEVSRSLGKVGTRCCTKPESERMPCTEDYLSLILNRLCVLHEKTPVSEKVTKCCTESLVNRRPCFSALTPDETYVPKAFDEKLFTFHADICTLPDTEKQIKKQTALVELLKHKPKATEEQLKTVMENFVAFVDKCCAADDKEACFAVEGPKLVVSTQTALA
Protocol: (§1) The solutions of compounds Ha to IIc in a concentration of 1×10^−6M (10 mM PBS buffer (pH=7.4) was used as solvent) was prepared, and 3 ml of the each dye solution was added into a cuvette, respectively. Then, an aqueous bovine serum albumin (BSA) stock solution with the concentration of 50 μg/μL (750 μM) was added dropwise into each of the dye solution. The fluorescence intensity of the dye was measured each 5 minutes after addition of BSA for fluorescence becoming stable, on UV-visible spectrophotometer (Mode: Hp8453) and fluorescence spectrophotometer (Mode: FP-6500).
Especially for dyes IIb and IIc, the fluorescence intensity thereof was increased linearly with addition of BSA to arrive at more than 30 folds.

calf thymus DNA (ct-DNA) = test: Titration of dye solution with calf thymus DNA, fluorescence and UV absorption; type: binding; conditions: dye 1×10^−6 M, PBS pH 7.4
Protocol: as §1, with “cuvette separately.” for “cuvette, respectively.”, “calf thymus DNA” for “bovine serum albumin (BSA)”, “was prepared,” for “with”, “the calf thymus DNA stock solution was determined as 1.5×10^−3 mM by the absorbance at 260 nm on UV absorption spectrophotometer. The calf thymus DNA stock solution” for “50 μg/μL (750 μM)”
From the interaction results of three dyes with calf thymus DNA, it can be known that no evident fluorescence increase was found after the interaction of the dye with the DNA. FIGS. 4 and 5 were titration figures of the interaction of dye lib with calf thymus DNA. […] All of these indicated DNA could be differentiated from protein by dyes IIa, IIb and IIc.

Structure (SMILES): CCN1/C(=C/C=C/C(=C/C2=[N+](CC)c3ccccc3C2(C)C)NCCO)C(C)(C)c2ccccc21 [Dye IIb]
- Φ1 (fluorescence quantum yield) ([1]; solvent DCM): 0.114
- Φ2 (fluorescence quantum yield) ([1]; solvent DCM): 0.100
- Φ1 (fluorescence quantum yield) ([1]; solvent DMSO): 0.009
- Φ2 (fluorescence quantum yield) ([1]; solvent DMSO): 0.008
- Φ1 (fluorescence quantum yield) ([1]; solvent Ethanol): 0.019
- Φ2 (fluorescence quantum yield) ([1]; solvent Ethanol): 0.017
- Φ1 (fluorescence quantum yield) ([1]; solvent Methanol): 0.009
- Φ2 (fluorescence quantum yield) ([1]; solvent Methanol): 0.008
- Φ1 (fluorescence quantum yield) ([1]; solvent THF): 0.085
- Φ2 (fluorescence quantum yield) ([1]; solvent THF): 0.075
- Φ1 (fluorescence quantum yield) ([1]; solvent Water): 0.002
- Φ2 (fluorescence quantum yield) ([1]; solvent Water): 0.002
- Δλ1 ([2]; solvent DCM): 79
- Δλ1 ([2]; solvent DMSO): 91
- Δλ1 ([2]; solvent Ethanol): 91
- Δλ1 ([2]; solvent Methanol): 89
- Δλ1 ([2]; solvent THF): 82
- Δλ1 ([2]; solvent Water): 103
- Δλ2 ([2]; solvent DCM): 167
- Δλ2 ([2]; solvent DMSO): 170
- Δλ2 ([2]; solvent Ethanol): 177
- Δλ2 ([2]; solvent Methanol): 175
- Δλ2 ([2]; solvent THF): 158
- Δλ2 ([2]; solvent Water): 190
- ε1 (molar extinction coefficient) ([2]; solvent DCM): 3.4 cm^−1M
- ε2 (molar extinction coefficient) ([2]; solvent DCM): 1.7 cm^−1M
- λabs1 ([2]; solvent DCM): 517 nm
- λbs2 ([2]; solvent DCM): 429 nm
- λem ([2]; solvent DCM): 596 nm
- ε1 (molar extinction coefficient) ([2]; solvent DMSO): 3.0 cm^−1M
- ε2 (molar extinction coefficient) ([2]; solvent DMSO): 2.3 cm^−1M
- λabs1 ([2]; solvent DMSO): 515 nm
- λbs2 ([2]; solvent DMSO): 436 nm
- λem ([2]; solvent DMSO): 606 nm
- ε1 (molar extinction coefficient) ([2]; solvent Ethanol): 3.3 cm^−1M
- ε2 (molar extinction coefficient) ([2]; solvent Ethanol): 2.3 cm^−1M
- λabs1 ([2]; solvent Ethanol): 521 nm
- λbs2 ([2]; solvent Ethanol): 435 nm
- λem ([2]; solvent Ethanol): 612 nm
- ε1 (molar extinction coefficient) ([2]; solvent Methanol): 3.1 cm^−1M
- ε2 (molar extinction coefficient) ([2]; solvent Methanol): 2.4 cm^−1M
- λabs1 ([2]; solvent Methanol): 519 nm
- λbs2 ([2]; solvent Methanol): 433 nm
- λem ([2]; solvent Methanol): 608 nm
- ε1 (molar extinction coefficient) ([2]; solvent THF): 3.6 cm^−1M
- ε2 (molar extinction coefficient) ([2]; solvent THF): 2.2 cm^−1M
- λabs1 ([2]; solvent THF): 503 nm
- λbs2 ([2]; solvent THF): 427 nm
- λem ([2]; solvent THF): 585 nm
- ε1 (molar extinction coefficient) ([2]; solvent Water): 2.1 cm^−1M
- ε2 (molar extinction coefficient) ([2]; solvent Water): 1.7 cm^−1M
- λabs1 ([2]; solvent Water): 517 nm
- λbs2 ([2]; solvent Water): 430 nm
- λem ([2]; solvent Water): 620 nm
- change of fluorescence intensity by interaction with protein (BSA) [3]: largely increased
- change of fluorescence by interaction with ct-DNA (calf thymus DNA (ct-DNA)): little fluorescence increase

Structure (SMILES): CCN1/C(=C/C=C/C(=C/C2=[N+](CC)c3ccccc3C2(C)C)N(CCO)CCO)C(C)(C)c2ccccc21 [Dye IIc]
- Φ1 (fluorescence quantum yield) ([1]; solvent DCM): 0.124
- Φ2 (fluorescence quantum yield) ([1]; solvent DCM): 0.061
- Φ1 (fluorescence quantum yield) ([1]; solvent DMSO): 0.005
- Φ2 (fluorescence quantum yield) ([1]; solvent DMSO): 0.005
- Φ1 (fluorescence quantum yield) ([1]; solvent Ethanol): 0.014
- Φ2 (fluorescence quantum yield) ([1]; solvent Ethanol): 0.013
- Φ1 (fluorescence quantum yield) ([1]; solvent Methanol): 0.007
- Φ2 (fluorescence quantum yield) ([1]; solvent Methanol): 0.008
- Φ1 (fluorescence quantum yield) ([1]; solvent THF): 0.109
- Φ2 (fluorescence quantum yield) ([1]; solvent THF): 0.099
- Φ1 (fluorescence quantum yield) ([1]; solvent Water): 0.001
- Φ2 (fluorescence quantum yield) ([1]; solvent Water): 0.001
- Δλ1 ([2]; solvent DCM): 96
- Δλ1 ([2]; solvent DMSO): 97
- Δλ1 ([2]; solvent Ethanol): 97
- Δλ1 ([2]; solvent Methanol): 97
- Δλ1 ([2]; solvent THF): 88
- Δλ1 ([2]; solvent Water): 98
- Δλ2 ([2]; solvent DCM): 168
- Δλ2 ([2]; solvent DMSO): 154
- Δλ2 ([2]; solvent Ethanol): 167
- Δλ2 ([2]; solvent Methanol): 169
- Δλ2 ([2]; solvent THF): 155
- Δλ2 ([2]; solvent Water): 168
- ε1 (molar extinction coefficient) ([2]; solvent DCM): 2.8 cm^−1M
- ε2 (molar extinction coefficient) ([2]; solvent DCM): 2.1 cm^−1M
- λabs1 ([2]; solvent DCM): 526 nm
- λbs2 ([2]; solvent DCM): 454 nm
- λem ([2]; solvent DCM): 622 nm
- ε1 (molar extinction coefficient) ([2]; solvent DMSO): 2.5 cm^−1M
- ε2 (molar extinction coefficient) ([2]; solvent DMSO): 2.1 cm^−1M
- λabs1 ([2]; solvent DMSO): 515 nm
- λbs2 ([2]; solvent DMSO): 458 nm
- λem ([2]; solvent DMSO): 612 nm
- ε1 (molar extinction coefficient) ([2]; solvent Ethanol): 2.8 cm^−1M
- ε2 (molar extinction coefficient) ([2]; solvent Ethanol): 2.3 cm^−1M
- λabs1 ([2]; solvent Ethanol): 521 nm
- λbs2 ([2]; solvent Ethanol): 451 nm
- λem ([2]; solvent Ethanol): 618 nm
- ε1 (molar extinction coefficient) ([2]; solvent Methanol): 3.1 cm^−1M
- ε2 (molar extinction coefficient) ([2]; solvent Methanol): 2.2 cm^−1M
- λabs1 ([2]; solvent Methanol): 522 nm
- λbs2 ([2]; solvent Methanol): 450 nm
- λem ([2]; solvent Methanol): 619 nm
- ε1 (molar extinction coefficient) ([2]; solvent THF): 3.1 cm^−1M
- ε2 (molar extinction coefficient) ([2]; solvent THF): 1.9 cm^−1M
- λabs1 ([2]; solvent THF): 517 nm
- λbs2 ([2]; solvent THF): 450 nm
- λem ([2]; solvent THF): 605 nm
- ε1 (molar extinction coefficient) ([2]; solvent Water): 1.8 cm^−1M
- ε2 (molar extinction coefficient) ([2]; solvent Water): 1.9 cm^−1M
- λabs1 ([2]; solvent Water): 517 nm
- λbs2 ([2]; solvent Water): 447 nm
- λem ([2]; solvent Water): 615 nm
- change of fluorescence intensity by interaction with protein (BSA) [3]: largely increased
- change of fluorescence by interaction with ct-DNA (calf thymus DNA (ct-DNA)): little fluorescence increase

From patent publication US8735601B2, “Pentamethine cyanine fluorescent dye with N-substituting at β-position of conjugated chain” (Dalian University of Technology, priority 2010, dated 2014)
